# According to patent US20070269406A1, “Transcatheter tumor immunoembolization” (priority 2005, published 2007):
# Tests used:
# [1] = system: IL-12 p70; assay: IL-12 p70 production by LPS/TNF-activated bone marrow derived DC after siRNA transfection (ELISA); type: cell-based, C57/BL6 mice; conditions: day-7 bone marrow derived C57/BL6 DC; LPS/TNF activation day 8; supernatants day 10; FIG. 7
# Protocol: At Day 0, bone marrow cells were flushed from the femurs and tibias of C57/BL6 mice, washed and cultured in 6-well plates (Corning, N.Y.) at 4×10^6 cells/well in 4 ml of complete medium (RPMI 1640 supplemented with 2 mM L-glutamine, 100 U/ml penicillin, 100 μg of streptomycin, 50 μM 2-ME, and 10% FCS (all from Life Technologies, Ontario, Canada) supplemented with recombinant GM-CSF (10 ng/ml; PeproTech, Rocky Hill, N.J.) and recombinant mouse IL-4 (10 ng/ml; PeproTech). All cultures were incubated at 37° C. in 5% humidified CO2. Non-adherent cells were removed after 48 h of culture (Day 2) and fresh medium was added. After 7 days of culture, >90% of the cells expressed the characteristic DC-specific marker CD11c as determined by FACS. DC were washed and plated in 24-well plates at a concentration of 2×10^5 cells/well in 400 μl of serum-free RPMI 1640. Transfection with GenePorter, lipiodol, or naked siRNA was performed as described below on day 7 of culture. […]
# (§1) The supernatants from recall response T cell cultures or MLR were harvested and assessed for DC cytokines (IL-12p70, IL-10) and T cell cytokines (IFN-, IL-4) by ELISA. Cytokine-specific ELISA (Endogen, Rockford, Ill.) was used for detecting cytokine concentrations in culture supernatants according to the manufacturer's instructions using a Benchmark Microplate Reader (Bio-Rad, Hercules, Calif.). […]
# [2] = system: BALB/c T cells responding to C57/BL6 DC; assay: Mixed lymphocyte reaction, proliferation of responding allogeneic T cells; type: cell-based, mice; conditions: 3 day MLR; lipiodol-transfected C57/BL6 DC with naive BALB/c splenocytes; FIG. 9
# Protocol: C57/BL6 DC after transfection were irradiated (3,000 rad) and seeded in triplicate at various concentrations in a flat-bottom 96-well plate (Coming) for use as stimulator cells. Splenic T cells from BALB/c mice were isolated by gradient centrifugation over Ficoll-Paque (Amersham Pharmacia Biotech, Quebec) and T cell nylon wool column purification, and added as responders (5×10^5 cells/well). The mixed lymphocytes were cultured at 37° C. for 72 h in 200 μl of RPMI 1640 supplemented with 10% FCS, 100 U/ml of penicillin, and 100 μg/ml of streptomycin and pulsed with 1 μCi/well of ^3H-labelled thymidine (Amersham Pharmacia Biotech) for the last 16 h of culture. Cells were harvested onto glass fiber filters, and the radioactivity incorporated was quatitated using a Wallac Betaplate liquid scintillation counter (Beckman, Fullerton, Calif.). Results were expressed as the mean counts per min of triplicate cultures±SEM. In some experiments anti-IL-10 (JES5 2A5, Pharmingen) or isotype control antibody were added for the duration of the MLR at a concentration of 5 ug/ml.
# Since the specific function of DC in vivo is stimulation of T cell responses, we sought to determine whether the siRNA/lipiodol mixture had effects on inhibition of mixed lymphocyte reaction (MLR).
# [3] = system: splenic lymphocytes; assay: Ovalbumin-specific proliferative recall response of splenic lymphocytes after intrahepatic immunization; type: in vivo, BALB/c mice; conditions: intrahepatic (portal vein) ovalbumin immunization; boosted day 7 with ovalbumin/CFA; splenic lymphocytes 14 days after boost; FIG. 1
# Text: Four groups of BALB/c mice (The Jackson Laboratory, Bar Harbor, ME) of 6-8 weeks of age consisted of Group 1 intraperitoneal administration of ovalbumin, Group 2 intrahepatic administration of ovalbumin, Group 3 intrahepatic administration of ovalbumin together with lipiodol, and Group 4 intrahepatic administration of ovalbumin together with lipiodol and Poly (I:C).
# Mice in Group 1(5 mice per group) where administered one hundred micrograms of ovalbumin (grade V; Sigma Aldrich) dissolved in 0.1 mL of 0.9% saline solution intraperitoneally. The following procedures were performed for mice receiving intrahepatic immunization: Mice were anesthetized with an intraperitoneal injection of ketamin at a concentration of 0.075 mg/g and medetomidine 0.005 mg/g (Sigma Aldrich, St Louis, Mo.). A midline abdominal incision was made, and the viscera were exposed. One hundred micrograms of ovalbumin was dissolved in 0.1 mL of 0.9% saline solution was injected into the portal vein with a 30-gauge needle for mice in Group 2. Mice in Group 3 received one hundred micrograms of ovalbumin dissolved in 0.1 mL of lipiodol (Guerbet, Roissy CdG Cedex, France). […] Cells were harvested onto glass fiber filters, and the radioactivity incorporated was quantitated using a Wallac Betaplate liquid scintillation counter. Results were expressed as the mean cpm of triplicate cultures±SEM. […]
# [4] = system: CD4 T cells from draining lymph nodes; assay: KLH proliferative recall response after immunization with siRNA/lipiodol, CFA and KLH; type: in vivo, C57BL/6 mice; conditions: lipiodol/CFA composition with KLH, identical protocol to Example 10; FIG. 15
# Protocol: (§2) C57/BL6 mice were immunized intradermally at the interior side of both hind legs with 100 μl of KLH or ovalbumin (1 μg/μl) emulsified in CFA (Difco Laboratories, Detroit, Mich.) in the presence or absence of 10 nMol siRNA and 10% lipiodol. After 14 days mice were sacrificed and T cells extracted as described above.
# (§3) Proliferative recall responses to KLH and ovalbumin in immunized mice were assessed by sacrificing C57/BL6 mice 14 days after immunization with antigen-loaded DC. T cells were purified from suspensions of lymph nodes using CD4+ T cell column (R&D Systems) after washing in PBS. Purified T cells were cultured in 96 well plates with irradiated syngeneic splenocytes in triplicate and mixed with serial dilutions of KLH or OVA at concentrations ranging from 0-10 ug/ml. Following a 72-h incubation, 1 μCi of [^3H]thymidine (Amersham) was added to each well for 16 h. Using an automated cell harvester, the cells were collected onto glass microfiber filter, and the radioactive labeling incorporation was measured by a Wallac Betaplate liquid scintillation counter.
# Accordingly, we used the KLH recall response as an indicator. C57BL/6 mice were immunized with the IL-12 siRNA/lipiodol mixture combined with CFA and KLH. […]
# [5] = system: IFN-γ; assay: KLH recall response supernatants, IFN-γ ELISA; type: in vivo, C57BL/6 mice; conditions: 14 days after immunization with siRNA/lipiodol, CFA and KLH, supernatants by ELISA, FIG. 13, FIG. 16
# Protocol: as §2
# as §3, with “Following a 72-h incubation, 1 μCi of [^3H]thymidine (Amersham) was added to each well for 16 h.” left out
# as §1
# [6] = system: IL-4; assay: KLH recall response supernatants, IL-4 ELISA; type: in vivo, C57BL/6 mice; conditions: 14 days after immunization with siRNA/lipiodol, CFA and KLH, supernatants by ELISA, FIG. 14, FIG. 17
# Protocol: as §2
# as §3, with “Following a 72-h incubation, 1 μCi of [^3H]thymidine (Amersham) was added to each well for 16 h.” left out
# as §1
# [7] = listed as Lipiodol-siRNA targeting IL-10
substance,measurement,setting,value
"mismatched siRNA: mismatched (mixed) control sequence (AACTGCCAGATGGATGGTGAC) (SEQ ID NO: 3) (listed as DNA, chemistry not given here) [reference compound]",inhibition of IL-12 production,[1],no inhibitory effect
same,proliferation of responding T cells / allostimulatory ability of DC in MLR,[2],not the mismatched (mixed) control inhibited proliferation
Poly (I:C),proliferative recall response to ovalbumin ([3H]thymidine),[3],profound stimulation
"siRNA specific for IL-12p35: siRNA specific for IL-12p35 (AACCUGCUGAAGACCACAGAU) (SEQ ID NO: 1), Dharmacon (listed as RNA, chemistry not given here)",inhibition of IL-12 production,[1],> 30%
same,proliferation of responding T cells / allostimulatory ability of DC in MLR,[2],inhibited proliferation
"siRNA targeting IL-10: siRNA specific for IL-10 (AATAAGCTCCAAGAGAAAGGC) (SEQ ID NO: 2), delivered in vivo in a lipiodol/CFA composition (lipiodol/CFA formulation, further chemistry not given here)",recall proliferative response to KLH,[4],increased
same,IFN-γ production in KLH recall response,[5],enhanced
same,IFN-γ production in KLH recall response,[5]; [7],Increased
same,IL-4 production in KLH recall response,[6],reduced
same,IL-4 production in KLH recall response,[6]; [7],Decreased
